Laboratory results published in patent publication US8012944B2, “Method for treating cancer using IAP antisense oligomer and chemotherapeutic agent” (Pharmascience Inc., priority 2003, dated 2011).
Oligonucleotides are written 5' to 3', each unit as a sugar letter and its base; * is a phosphorothioate linkage, no mark a phosphodiester; rarer units and linkages stand in square brackets, end groups in braces. Plain capitals give the bases only. d = 2'-deoxy (DNA); m = 2'-O-methyl

Tests used:
Format in all cases: cell-based, human
XIAP mRNA [1] = assay: XIAP mRNA knock-down in H460 cells (real-time RT-PCR / TaqMan)
Description: (§1) RNA was extracted from cells lysed in RLT buffer (QIAGEN, Valencia, Calif.), and purified using QIAGEN RNeasy columns/kits. Real-time quantitative PCR was performed on a Perkin-Elmer ABI 7700 Prism PCR machine. RNA was reverse transcribed and amplified according to the TaqMan Universal PCR Master Mix protocol of PE Biosystems, using primers and probes designed to specifically recognize XIAP, HIAP1, survivin, or GAPDH. For human survivin, the forward primer was 5′-[…]-3′ (SEQ ID NO: 263), the reverse primer was 5′-GAAAGGAAAGCGCAACCG-3′ (SEQ ID NO: 264), and the probe was 5′-(FAM)[…](TAMRA)-3′ (SEQ ID NO: 265). For human HIAP1, the forward primer was 5′-[…]-3′ (SEQ ID NO: 266), the reverse primer was 5′-[…]-3′ (SEQ ID NO: 267), and the probe was 5′-(FAM)[…](TAMRA)-3′ (SEQ ID NO: 268). For human XIAP, the forward primer was 5′-[…]-3′ (SEQ ID NO: 269), the reverse primer was 5′-[…]-3′ (SEQ ID NO: 270), and the probe was 5′-(FAM)[…](TAMRA)-3′ (SEQ ID NO: 271). For human GAPDH, the forward primer was 5′-GAAGGTGAAGGTCGGAGTC-3′ (SEQ ID NO: 272), the reverse primer was 5′-GAAGATGGTGATGGGATTC-3′ (SEQ ID NO: 273), and the probe was 5′-(JOE)[…](TAMRA)-3′ (SEQ ID NO: 274). FAM is 6-carboxyfluoroscein, JOE is 6-carboxy-4,5-dichloro-2,7-dimethoxyfluoroscein, and TAMRA is 6-carboxy-N,N,N′,N′-tetramethylrhodamine. FAM and JOE are 5′ reporter dyes, while TAMRA is a 3′ quencher dye.
(§2) Relative quantification of gene expression was performed as described in the PE Biosystems manual using GAPDH as an internal standard. The comparative Ct (cycle threshold) method was used for relative quantitation of IAP mRNA levels compared to GAPDH mRNA levels. Briefly, real-time fluorescence measurements were taken at each PCR cycle and the threshold cycle (Ct) value for each sample was calculated by determining the point at which fluorescence exceeded a threshold limit of 30 times the baseline standard deviation. The average baseline value and the baseline SD are calculated starting from the third cycle baseline value and stopping at the baseline value three cycles before the signal starts to exponentially rise. The PCR primers and/or probes for the specific IAPs were designed to span at least one exon-intron boundary separated by 1 kb or more of genomic DNA, to reduce the possibility of amplifying and detecting genomic DNA contamination. The specificity of the signal, and possible contamination from DNA, were verified by treating some RNA samples with either DNase or RNase, prior to performing the reverse transcription and PCR reaction steps.
A portion of the 96 nucleobase oligomers depicted in Table 2 were rescreened for their ability to knock-down XIAP mRNA in NCI-H460 cells at […] post-transfection.
One day prior to transfection, H460 cells were plated in 6- or 96-well tissue culture plates. Phosphorothioate antisense oligonucleotides were delivered into cells with Lipofectamine 2000 (Life Technologies) in the form of liposome-oligonucleotide complexes. Following a 4.5 or 6 h transfection, the transfection medium was replaced with RPMI medium containing 10% FBS, and the cells incubated for another 24 or 48 h.
Total RNA from H460 cells treated with liposome-oligonucleotide complexes for 6 hours was immediately isolated using RNeasy mini spin columns and DNase treatment (QIAGEN, Valencia, Calif.). Specific XIAP mRNA was measured using a real-time quantitative RT-PCR method. […]

XIAP RNA = XIAP RNA knock-down in T24 cells (TaqMan quantitative PCR)
Description: (§3) We used TaqMan quantitative PCR (described below) to assay for changes in mRNA levels after oligonucleotide treatment. We employed ELISA for determining XIAP protein levels and western blotting for determining HIAP1 protein levels. Transfection conditions were optimized with Lipofectamine plus or Lipofectamine 2000 (Life Technologies, Canada) on T24 bladder carcinoma cells or H460 non-small cell lung carcinoma cells, or lipofectin on SF-295 glioblastoma cells, using a fluorescein-tagged sense oligonucleotide (5′-mGmAGAAGATGACTGGTAAmCmA-3′; SEQ ID NO: 261) from XIAP spanning the start codon as a control. The results were visualized and gauged by epi-fluorescence microscopy. In the case of T24 cells, transfections were further optimized based on the ability of a published oligonucleotide to downregulate survivin expression (Li et al., Nat. Cell Biol. 1:461-466, 1999) (5′-U/TGTGCTATTCTGTGAAU/TU/T-3′ SEQ ID NO: 262). We optimized the transfection conditions based on the TaqMan results of survivin RNA knock-down detected with PCR primers and fluorescent probe, described in detail below. […] We then applied these conditions to screen for XIAP protein knock-down using the oligo library against T24 cells.
as §1, §2
The XIAP synthetic library of 96 antisense oligonucleotides was first screened for decreases in XIAP protein levels. […]

XIAP protein = XIAP protein knock-down in T24 cells (XIAP ELISA, relative to total protein); conditions: for XIAP protein levels relative to total protein, compared to mock transfection (in words): first screen of the library
Description: as §3
A standard colorimetric XIAP ELISA assay was performed using an affinity-purified rabbit polyclonal antibody to XIAP as a capture antibody, and was detected with a XIAP monoclonal antibody (MBL, Japan) and a biotinylated anti-mouse Ig antibody and horseradish peroxidase-conjugated streptavidin and TMB substrate. Alternatively, a polyclonal XIAP or HIAP1 antibody may be used to measure XIAP or HIAP1 protein levels, respectively.
The XIAP synthetic library of 96 antisense oligonucleotides was first screened for decreases in XIAP protein levels. Specifically, T24 cells (1.5×10^4 cells/well) were seeded in wells of a 96-well plate on day 1, and were cultured in antibiotic-free McCoy's medium for 24 hours. On day 2, the cells were transfected with XIAP antisense oligonucleotides as described above (oligonucleotides are labeled according to their plated position, i.e., A1 to H12, and include two repeats, A13 and B13 that contain lyophilized DNA pellets that stuck to the sealing membrane). Briefly, the nucleobase oligomers were diluted in 10 μl/well of serum-free, antibiotic-free McCoy's medium and then PLUS reagent was added. Lipofectamine was diluted in 10 μl/well of serum-free, antibiotic-free McCoy's medium, and both mixes were incubated for 15 minutes at room temperature. The mixes were then combined and incubated for 15 minutes at room temperature.
In the meantime, the complete medium was removed from the cells and 50 μl/well of serum-free, antibiotic-free medium was added to the cells. The transfection mixes were added to the well, and the cells were incubated for three hours. Then 30 μl/well of serum-free, antibiotic-free medium and 100 μl/well of antibiotic-free complete medium, containing 20% fetal bovine serum were added to each well.
At day 3, XIAP RNA levels were measured using quantitative real-time PCR techniques, as described above. At day 4, XIAP protein levels were measured by ELISA (FIGS. 1A, 1C, 1E, 1G, 1I, and 1K), and total cellular protein was measured biochemically (FIGS. 1B, 1D, 1F, 1H, 1J, and 1L; used to normalize the XIAP protein levels). The results were compared to a mock transfection sample (treated with the transfection agent but no oligonucleotide DNA was added, and then processed as for the other samples). Time course experiments determined that the optimal time for protein knock-down to be around 12 to 24 hours. […]

HIAP1 mRNA = HIAP1 mRNA in SF295 cells, basal conditions (TaqMan); parameters: decrease of HIAP1 mRNA compared to mock or scrambled survivin control: concentration or dose not given beside the values; conditions: for HIAP1 mRNA levels (in words): SF295 cells (FIG. 21)
Description: as §1, §2
A library of 15 HIAP1 antisense nucleobase oligomers as oligonucleotides was screened for protein knock-down by western blot analysis and for RNA knock-down by TaqMan, using the primers and probes described in Example 3, above, under two different conditions. HIAP1 RNA levels may be detected using standard Northern blot analyses or RT-PCR techniques. The antisense oligonucleotides were administered to cells under basal conditions or under cycloheximide-induction conditions (24 hour treatment with sub-toxic doses). Cycloheximide (CHX) can lead to a 10- to 200-fold induction of HIAP1 mRNA depending on the cell line treated. […] This effect of CHX is via two distinct mechanisms of action. First, CHX activates NFkB, a known transcriptional inducer of HIAP1, by blocking the de novo synthesis of a labile protein, IkB, which is an inhibitor of NFkB. This effect is mimicked by puromycin, another protein synthesis inhibitor, and by TNF-alpha, which induces a signaling cascade leading to the phosphorylation, ubiquination, and degradation of IkB.
SF295 glioblastoma cells were transfected with lipofectin and oligonucleotide (scrambled survivin, no oligonucleotide, antisense APO 1 to APO 15) or left untreated. […]

XIAP mRNA [2] = assay: XIAP mRNA knock-down in H460 cells (real-time RT-PCR / TaqMan); conditions: 2 × 2 MBO; NCI-H460 cells, 9 hours post-transfection; relative level (mock control 1.01)

Sequence	XIAP down-regulation H460 RNA (XIAP mRNA [1]) [%]	XIAP down-regulation T24 RNA (XIAP RNA) [%]	XIAP down-regulation T24 protein (XIAP protein) [%]	XIAP protein levels relative to total protein, compared to mock transfection (in words) (XIAP protein)	also measured
GCTGAGTCTCCATATTGCC [G4] (chemistry not fully specified) [Code G4]	51	34	48	some decrease	–
ACCCATGCACAAAACTACC (chemistry not given here) [APO 4]	–	–	–	–	HIAP1 mRNA levels (in words) (HIAP1 mRNA): stress-induced increase in HIAP1 mRNA
AGTTTTCAACTTTGTACTG (antisense; sugars from the 5' end m2 d15 m2, backbone and T or U not given here; further chemistry not fully specified) [Code D5]	–	39	33	some decrease	–
GTGTAGTAGAGTCCAGCAC (antisense; sugars from the 5' end m2 d15 m2, backbone, methylation of C and T or U not given here; further chemistry not fully specified) [Code F6]	–	34	39	some decrease	–
CCTGTCCTTTAATTCTTAT (chemistry not given here) [APO 13]	–	–	–	–	HIAP1 mRNA levels (in words) (HIAP1 mRNA): stress-induced increase in HIAP1 mRNA
CAGGGTTCCTCGGGTATAT (antisense; sugars from the 5' end m2 d15 m2, backbone and T or U not given here; further chemistry not fully specified) [Code B6]	–	51	47	some decrease	–
GGCTGCAATATTTCCTTTT (chemistry not given here) [APO 14]	–	–	–	–	HIAP1 mRNA levels (in words) (HIAP1 mRNA): stress-induced increase in HIAP1 mRNA
ACCATTCTGGATACCAGAA (mA*mCdCdAdTdTdCdTdGdGdAdTdAdCdCdAdGmA*mA) [Code C5]	–	71	54	some decrease	–
TTCAACATGGAGATTCTAA (chemistry not given here) [APO 9]	–	–	–	–	decrease of HIAP1 mRNA compared to mock or scrambled survivin control (HIAP1 mRNA; SF295 cells, six hours after transfection): ~50%
GTTGTTCCCAAGGGTCTTC (antisense; sugars from the 5' end m2 d15 m2, backbone, methylation of C and T or U not given here; further chemistry not fully specified) [Code E8]	44	72	56	–	–
ACCCTGGATACCATTTAGC (antisense; chemistry not fully specified) [Code F8]	47	–	–	some decrease	XIAP RNA (XIAP mRNA [2]): 0.62
CTACAGCTGCATGACAACT (antisense; sugars from the 5' end m2 d15 m2, backbone and T or U not given here; further chemistry not fully specified) [Code F4]	–	33	43	some decrease	–
CTAAATACTAGAGTTCGAC (antisense; sugars from the 5' end m2 d15 m2, backbone and T or U not given here; further chemistry not fully specified) [Code G2]	55	–	–	–	XIAP RNA (XIAP mRNA [2]): 0.44
AAAATTCTAAGTACCTGCA (mA*mAdAdAdTdTdCdTdAdAdGdTdAdCdCdTdGmC*mA; antisense) [Code A1]	48	–	–	–	XIAP RNA (XIAP mRNA [2]): 0.46
CTTTGATCTGGCTCAGACT (antisense; sugars from the 5' end m2 d15 m2, backbone, methylation of C and T or U not given here; further chemistry not fully specified) [Code G12]	76	–	–	–	XIAP RNA (XIAP mRNA [2]): 0.24
GCATTTTCGTTATTCATTG (chemistry not given here) [APO 11]	–	–	–	–	HIAP1 mRNA levels (in words) (HIAP1 mRNA): stress-induced increase in HIAP1 mRNA
